# Source: ChEMBL document CHEMBL1156236, “Trypanoside, anti-tuberculosis, leishmanicidal, and cytotoxic activities of tetrahydrobenzothienopyrimidines” (Bioorg Med Chem, 2010)
# Calls of active or inactive are those of the source. The calls are words filed in the database; no cut-off is given here.
# Tests used:
# Leishmania amazonensis [1] = test: Antileishmanial activity against Leishmania amazonensis LV79 MPRO/BR/72/M1841 amastigotes infected BALB/c mouse assessed as reduction of parasite burden at 33 mg/kg/day, intralesionally administered after 1 week post infection 3 times per week for 6 weeks measured on week 7 by fluorescence method relative to control; format: functional, organism-based; design: scale not given: the % may be the effect or the level left
# Leishmania amazonensis [2] = test: Antileishmanial activity against Leishmania amazonensis LV79 MPRO/BR/72/M1841 amastigotes infected BALB/c mouse assessed as reduction of parasite burden at 33 mg/kg/day, intralesionally administered after 1 week post infection 3 times per week for 6 weeks measured on week 4 by fluorescence method relative to control; format: functional, organism-based; design: scale not given: the % may be the effect or the level left
# Leishmania amazonensis [3] = test: Antileishmanial activity against Leishmania amazonensis LV79 MPRO/BR/72/M1841 amastigotes infected BALB/c mouse assessed as lesion diameter at 5 mg/kg/day, intralesionally administered after 1 week post infection 3 times per week for 6 weeks measured on week 7 relative to control; format: functional
# Leishmania amazonensis [4] = test: Antileishmanial activity against Leishmania amazonensis LV79 MPRO/BR/72/M1841 amastigotes infected BALB/c mouse assessed as lesion diameter at 33 mg/kg/day, intralesionally administered after 1 week post infection 3 times per week for 6 weeks measured on week 7 relative to control; format: functional, organism-based
# Leishmania amazonensis [5] = test: Antileishmanial activity against Leishmania amazonensis LV79 MPRO/BR/72/M1841 amastigotes infected BALB/c mouse assessed as lesion diameter at 33 mg/kg/day, intralesionally administered after 1 week post infection 3 times per week for 6 weeks measured on week 4 relative to control; format: functional, organism-based
# [6] = test system: Mycobacterium tuberculosis; test: Antitubercular activity against Mycobacterium tuberculosis H37Rv ATCC 27294 after 7 days by microplate alamar blue assay; format: functional; conditions: H37Rv ATCC 27294, 168 h
# DU-145 = test: Cytotoxicity against human DU145 cells; format: functional
# MCF7 = test: Cytotoxicity against human MCF7 cells; format: functional
# [7] = Selectivity index, ratio of IC50 for BALB/c mouse macrophages to IC50 for Leishmania amazonensis MHOM/BR/76/LTB-012
# [8] = Cytotoxicity against BALB mouse 3T3 cells; format: cell-based; conditions: BALB 3T3 cells
# Leishmania amazonensis [9] = test: Antileishmanial activity against Leishmania amazonensis MHOM/BR/76/LTB-012 amastigotes infected BALB/c mouse macrophages after 48 hrs by MTT assay; format: functional, organism-based; conditions: MHOM/BR/76/LTB-012, 48 h
# K562 = test: Cytotoxicity against human K562 cells; format: functional
# HT-29 = test: Cytotoxicity against human HT-29 cells; format: functional
# [10] = Selectivity index, ratio of IC50 for african green monkey Vero cells to IC50 for Trypanosoma cruzi tulahuen C4; conditions: Vero cells
# M14 = test: Cytotoxicity against human M14 cells; format: functional
# NCI-H460 = test: Cytotoxicity against human NCI-H460 cells; format: functional
# [11] = Selectivity index, ratio of IC50 for african green monkey Vero cells to MIC for Mycobacterium tuberculosis H37Rv ATCC 27294 by microplate alamar blue assay; format: functional
# [12] = Cytotoxicity against BALB/c mouse macrophages after 48 hrs by trypan blue dye exclusion method; format: cell-based; conditions: Macrophage
# Vero = test: (§1) Cytotoxicity against african green monkey Vero cells after 72 hrs by MTS assay; conditions: Chlorocebus sabaeus, Vero, 72 h
# Trypanosoma cruzi [13] = test: Antitrypanosomal activity against Trypanosoma cruzi tulahuen C4 trypomastigotes infected in african green monkey Vero cells assessed as CPRG cleavage after 120 hrs by microplate reader; format: functional, organism-based
# Trypanosoma cruzi [14] = test: Antitrypanosomal activity against Trypanosoma cruzi tulahuen C4 trypomastigotes infected mouse assessed as decrease in parasite replication at 20 mg/kg/day, ip on days 6 to 11 days post infection after 6 days; format: functional, organism-based
# [15] = test system: Mycobacterium tuberculosis; test: Antitubercular activity against Mycobacterium tuberculosis H37Rv ATCC 27294 after 7 days by low oxygen recovery assay; format: functional; conditions: H37Rv ATCC 27294, 168 h
# [16] = as §1; conditions: chlorocebus sabaeus, Vero cells
# [17] = Selectivity index, ratio of IC50 for african green monkey Vero cells to MIC for Mycobacterium tuberculosis H37Rv ATCC 27294 by low oxygen recovery assay; format: functional
# Leishmania peruviana = test: Antileishmanial activity against Leishmania peruviana MHOM/PE/LCA08 promastigote infected BALB/c mouse macrophages after 48 hrs by Giemsa staining method; format: functional, organism-based; conditions: MHOM/PE/LCA08, 48 h
# Leishmania braziliensis = test: Antileishmanial activity against Leishmania braziliensis MHOM/PE/PER006 promastigote infected BALB/c mouse macrophages after 48 hrs by Giemsa staining method; format: functional, organism-based; conditions: MHOM/PE/PER006, 48 h
# Leishmania amazonensis [18] = test: Antileishmanial activity against Leishmania amazonensis Lma CL1 amastigotes infected BALB/c mouse macrophages after 48 hrs by Giemsa staining method; format: functional, organism-based; conditions: Lma CL1, 48 h
# Leishmania amazonensis [19] = test: Antileishmanial activity against Leishmania amazonensis LV79 MPRO/BR/72/M1841 amastigotes infected BALB/c mouse assessed as reduction of parasite burden at 5 mg/kg/day, intralesionally administered after 1 week post infection 3 times per week for 6 weeks measured on week 4 by fluorescence method relative to control; format: functional; design: scale not given: the % may be the effect or the level left
# Leishmania amazonensis [20] = test: Antileishmanial activity against Leishmania amazonensis LV79 MPRO/BR/72/M1841 amastigotes infected BALB/c mouse assessed as lesion diameter at 5 mg/kg/day, intralesionally administered after 1 week post infection 3 times per week for 6 weeks measured on week 4 relative to control; format: functional
# Leishmania amazonensis [21] = test: Antileishmanial activity against Leishmania amazonensis LV79 MPRO/BR/72/M1841 amastigotes infected BALB/c mouse assessed as reduction of parasite burden at 5 mg/kg/day, intralesionally administered after 1 week post infection 3 times per week for 6 weeks measured on week 7 by fluorescence method relative to control; format: functional; design: scale not given: the % may be the effect or the level left
Compound,Activity (Leishmania amazonensis [3]),MIC [6],GI50 (DU-145),GI50 (MCF7),Ratio IC50 [7],GI50 [8],IC50 (Leishmania amazonensis [9]),GI50 (K562),GI50 (HT-29),selectivity ratio [10],GI50 (M14),GI50 (NCI-H460),Ratio IC50 [11],IC50 [12],IC50 (Vero),IC50 (Trypanosoma cruzi [13]),MIC [15],Ratio IC50 [17],further results
MEGLUMINE ANTIMONATE,4.7 mm,–,–,–,–,–,–,–,–,–,–,–,–,–,–,–,–,–,Activity (Leishmania amazonensis [1]): 100%; Activity (Leishmania amazonensis [2]): 100%; Activity (Leishmania amazonensis [4]): 2.2 mm; Activity (Leishmania amazonensis [5]): 2.1 mm
C(=C\c1ccccc1)/C=N/Nc1ncnc2sc3c(c12)CCCC3,–,35 µM,5.4 µM,2.1 µM,0.1,4.4 µM,16.6 µM,1.6 µM,8.2 µM,14.6,4.6 µM,2.1 µM,0.1,1.7 µM,20.9 µM,1.4 µM,–,–,Activity (Trypanosoma cruzi [14]): inactive
CO[C@H]1/C=C/O[C@@]2(C)Oc3c(C)c(O)c4c(O)c(c(/C=N/N5CCN(C)CC5)c(O)c4c3C2=O)NC(=O)/C(C)=C\C=C\[C@H](C)[C@H](O)[C@@H](C)[C@@H](O)[C@@H](C)[C@H](OC(C)=O)[C@@H]1C [RIFAMPIN],–,0.1 µM,–,–,–,–,–,–,–,–,–,–,1080,–,–,–,< 1.9 µM,–,selectivity ratio at 72 h [16]: 1080
C(=N\Nc1ncnc2sc3c(c12)CCCC3)/c1ccco1,–,39.9 µM,15.6 µM,1 µM,0.6,7.8 µM,4.2 µM,4 µM,8.5 µM,0.6,11.1 µM,7.1 µM,1,2.4 µM,10.1 µM,16.1 µM,9.7 µM,4.2,–
CCc1ccc(/C=N/Nc2ncnc3sc4c(c23)CCCC4)cc1,4.7 mm,> 250 µM,58.8 µM,18.5 µM,9.6,36.1 µM,15.7 µM,11.1 µM,32.2 µM,–,190 µM,28.2 µM,–,151 µM,–,> 25 µM,–,–,IC50 (Leishmania peruviana): 9.5 µM; IC50 (Leishmania braziliensis): 10.5 µM; IC50 (Leishmania amazonensis [18]): 8.2 µM; Activity (Leishmania amazonensis [19]): 30%; Activity (Leishmania amazonensis [20]): 3 mm; Activity (Leishmania amazonensis [21]): 2%
FC(F)(F)c1ccc(/C=N/Nc2ncnc3sc4c(c23)CCCC4)cc1,–,16.2 µM,14.8 µM,5.4 µM,4.1,10.8 µM,2 µM,6.6 µM,7 µM,0.8,16.9 µM,15.3 µM,5.5,8.1 µM,8 µM,10.5 µM,15.9 µM,5.6,–
O=C(Cn1ccnc1[N+](=O)[O-])NCc1ccccc1,–,–,–,–,–,–,–,–,–,–,–,–,–,–,–,–,–,–,Activity (Trypanosoma cruzi [14]): Active
C/C(=N/Nc1ncnc2sc3c(c12)CCCC3)c1ccccc1,–,72.6 µM,16.1 µM,16.5 µM,5.6,5.4 µM,28.5 µM,10.9 µM,21.9 µM,0.9,19.8 µM,15.9 µM,1.4,159 µM,12.4 µM,13.7 µM,8.7 µM,11.5,–
COc1ccc(/C=N/Nc2ncnc3sc4c(c23)CCCC4)cc1,–,71.2 µM,23.1 µM,12.5 µM,1.3,14.9 µM,47.5 µM,13.9 µM,17.3 µM,1.1,16.3 µM,17.1 µM,3.2,63.9 µM,17.7 µM,16 µM,26.9 µM,8.4,–
Clc1ccc(/C=N/Nc2ncnc3sc4c(c23)CCCC4)cc1,5.2 mm,> 250 µM,14.6 µM,8.4 µM,85.2,18.7 µM,1.7 µM,6.7 µM,15.1 µM,1.6,> 170 µM,12.8 µM,–,142 µM,20.4 µM,13.1 µM,–,–,IC50 (Leishmania peruviana): > 30 µM; IC50 (Leishmania braziliensis): 17.3 µM; IC50 (Leishmania amazonensis [18]): > 30 µM; Activity (Leishmania amazonensis [19]): 46%; Activity (Leishmania amazonensis [20]): 3.6 mm; Activity (Leishmania amazonensis [21]): 25%
CCC(CC)=NNc1ncnc2sc3c(c12)CCCC3,4.9 mm,160 µM,15 µM,15.1 µM,8.5,4.8 µM,19 µM,11.6 µM,38.9 µM,1,20.6 µM,15.2 µM,0.7,162 µM,20.8 µM,20.7 µM,–,–,IC50 (Leishmania peruviana): 7 µM; IC50 (Leishmania braziliensis): 11.1 µM; IC50 (Leishmania amazonensis [18]): 10.9 µM; Activity (Leishmania amazonensis [19]): 65%; Activity (Leishmania amazonensis [20]): 2.8 mm; Activity (Leishmania amazonensis [21]): 17%
